In US20130197059A1, “INTEGRIN ANTAGONIST CONJUGATES FOR TARGETED DELIVERY TO CELLS EXPRESSING LFA-1” (Hoffmann-La Roche Inc., priority 2012, published 2013):
Like-named read-outs stand apart in the source and are kept apart here.

Legend:
Jurkat Cells/VCAM-1 = Jurkat Cells/VCAM-1 Adhesion Assay; format: cell-based; details: Table 4
AHA1 mRNA = test: Knock-down of AHA1 mRNA by 5′-sense strand modified siRNA (Branched DNA Assay); format: cell-based; details: H1299 cells, siRNA 50 nM, DharmaFect-1 reverse transfection, 48 hours
Experimental: Assay of 5′-Sense Strand Modified siRNA for Knock-Down of AHA1 mRNA in Cellular Systems
Reference gene: GAPDH Cell line: H1299_Nut-One Plating density: 5,000 cells/well Plating format: 96-well Time from plating to treatment: 0 Control treatment: mock, untreated, control siRNA Transfection reagent: DharmaFectl
TF Reagent volume/well […] siRNA final concentration 50 nM Assay method: Day 1 manual/Day 2 Washer
Reverse transfection: H1299 cells were transfected with indicated siRNA at final concentration of 50 nM using DharmaFect-1 transfection reagent at 0.15 μl/well. Cells were then plated into 96-well plate at 5000 cells/well and incubated at 37° C. for 48 hours.
The efficacy of siRNA knock-down was measured with a Branched DNA Assay as reported by the vendor; the results of such knockdown are shown in FIG. 5. The relative cell viability was assessed by the absolute expression of GAPDH in the same well (FIG. 6).

sLFA-1/ICAM-1 = target: T1, sLFA-1/ICAM-1 (Homo sapiens, UniProt P05107+P20701); test: sLFA-1/ICAM-1 ELISA (LFA1 Adhesion Assay); format: binding
T1 construct: 2.0 ug/ml solution of sLFA-1 or Mac-1 receptor
T1 sequence (P20701 26-1090 limits assumed): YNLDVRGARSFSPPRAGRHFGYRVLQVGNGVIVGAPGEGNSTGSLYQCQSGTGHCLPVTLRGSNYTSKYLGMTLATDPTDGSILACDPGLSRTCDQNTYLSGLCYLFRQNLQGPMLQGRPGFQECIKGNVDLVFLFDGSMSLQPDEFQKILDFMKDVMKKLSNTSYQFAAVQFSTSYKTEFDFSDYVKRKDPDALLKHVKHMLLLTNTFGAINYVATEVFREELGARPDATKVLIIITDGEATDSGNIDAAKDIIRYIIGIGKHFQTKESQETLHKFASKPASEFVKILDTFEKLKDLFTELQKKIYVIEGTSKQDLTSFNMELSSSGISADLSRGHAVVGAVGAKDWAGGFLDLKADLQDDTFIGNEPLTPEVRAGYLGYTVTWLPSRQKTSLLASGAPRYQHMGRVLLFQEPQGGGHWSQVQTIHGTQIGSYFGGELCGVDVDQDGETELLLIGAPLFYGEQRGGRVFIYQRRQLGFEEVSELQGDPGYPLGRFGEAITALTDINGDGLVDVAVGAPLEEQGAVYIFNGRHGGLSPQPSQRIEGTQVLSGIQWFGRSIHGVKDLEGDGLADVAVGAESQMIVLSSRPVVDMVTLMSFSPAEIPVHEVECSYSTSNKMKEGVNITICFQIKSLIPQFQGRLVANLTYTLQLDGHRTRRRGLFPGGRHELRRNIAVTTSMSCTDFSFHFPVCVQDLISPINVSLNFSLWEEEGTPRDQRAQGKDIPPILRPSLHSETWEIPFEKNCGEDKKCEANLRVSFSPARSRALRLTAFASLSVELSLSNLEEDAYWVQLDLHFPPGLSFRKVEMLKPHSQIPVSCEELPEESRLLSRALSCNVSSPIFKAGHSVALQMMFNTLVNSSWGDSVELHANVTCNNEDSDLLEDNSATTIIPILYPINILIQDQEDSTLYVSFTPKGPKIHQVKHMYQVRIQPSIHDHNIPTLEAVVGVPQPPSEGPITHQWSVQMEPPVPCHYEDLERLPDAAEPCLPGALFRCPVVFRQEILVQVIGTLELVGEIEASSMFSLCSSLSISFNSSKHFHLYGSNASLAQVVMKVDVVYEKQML
T1 sequence (P05107 23-700 limits assumed): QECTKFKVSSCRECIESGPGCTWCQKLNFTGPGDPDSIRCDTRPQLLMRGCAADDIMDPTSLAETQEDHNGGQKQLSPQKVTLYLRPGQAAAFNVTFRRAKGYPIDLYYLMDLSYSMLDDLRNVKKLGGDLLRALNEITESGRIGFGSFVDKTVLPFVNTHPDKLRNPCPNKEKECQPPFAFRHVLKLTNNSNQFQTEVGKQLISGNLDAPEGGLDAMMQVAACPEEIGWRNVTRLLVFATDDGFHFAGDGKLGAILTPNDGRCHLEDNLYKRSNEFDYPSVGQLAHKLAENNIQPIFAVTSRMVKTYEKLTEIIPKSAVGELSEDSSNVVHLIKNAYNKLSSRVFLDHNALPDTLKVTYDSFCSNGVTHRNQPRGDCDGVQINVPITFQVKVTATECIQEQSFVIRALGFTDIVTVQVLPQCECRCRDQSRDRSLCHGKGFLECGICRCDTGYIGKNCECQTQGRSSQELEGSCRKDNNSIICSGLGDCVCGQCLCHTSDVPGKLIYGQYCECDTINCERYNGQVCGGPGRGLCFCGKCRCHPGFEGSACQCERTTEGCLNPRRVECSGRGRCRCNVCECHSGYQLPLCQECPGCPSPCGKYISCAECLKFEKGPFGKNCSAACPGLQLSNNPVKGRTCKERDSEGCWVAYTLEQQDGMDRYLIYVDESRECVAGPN
Experimental: The following assay was conducted to assess effect of targeted molecules on the sLFA-1/ICAM-1 ELISA and Mac-1/ICAM-1 interactions.
Plates were coated with either 50 μl/well of 2.0 ug/ml solution of sLFA-1 or Mac-1 receptor in divalent cation buffer (1 mM MnCI2, 0.14M NaCl, 20 mM HEPES pH 7.2) at 4° C. overnight. Two hundred fifty μl of blocking buffer (1% BSA in divalent cation buffer) was added to each well 1 hour at 37° C. Plates were washed 3 times with wash buffer (TBS/0.05% Tween-20/1 mM MnCl2). The compound to be tested was solubilized in DMSO. […] Fifty μl of binding buffer (0.5% BSA in divalent cation buffer)/1% DMSO and 50 μl of the solutions to be tested were added to the appropriate wells and incubated for 1 hour. Fifty μl of 5dICAM-Fc (27 ng/ml) was added to the appropriate wells and 50 μl binding buffer was added to non-specific binding wells and incubated for 2 hours and washed. One hundred μl of 1:4000 HRP-goat anti-huIgG was added to each well and incubated for 1 hour and washed. One hundred μl of 1:1 TMB solution was added to each well and developed for 20 min at room temperature. Color development was stopped by adding 100 μl H3PO4 to each well. Absorbance was measured at 450 nm.

[1] = Table 4, read-out: LFA1 Adhesion Assay
[2] = control compounds, read-out: IC50

IC50 (sLFA-1/ICAM-1; [1])	IC50 (sLFA-1/ICAM-1; Table 5, read-out: LFA1 Adhesion Assay (IC50 nM))	IC50 (sLFA-1/ICAM-1; [2])	Compound	IC50 (Jurkat Cells/VCAM-1)	AHA1 % KD (AHA1 mRNA)
–	–	–	Duplex-1: AHA1 siRNA duplex without targeting element: Sense-1 GGAuGAAGuGGAGAuuAGudTsdT, Antisense-1 ACuAAUCUCcACUUcAUCCdTsdT (sense GGAUGAAGUGGAGAUUAGUTT; antisense ACUAAUCUCCACUUCAUCCTT; lowercase nucleotides modified, meaning not given here, dTsdT 3' overhang)	> 200 nM	98%
37 nM	74 nM	~37 nM	Cc1cc(C(=O)NCc2cccc(Cl)c2)cc(C)c1C(=O)N[C@@H](CNC(=O)c1cccs1)C(=O)O [compound 142]	–	–
11 nM	–	~11 nM	O=C(NCc1cccc(O)c1)c1cc(Cl)c(C(=O)N[C@@H](CNC(=O)c2cc(O)cc(O)c2)C(=O)O)c(Cl)c1 [compound 143]	–	–
